According to ChEMBL document CHEMBL3272329, “Stereochemical analogs of a muscarinic, ganglionic stimulant. 2. Cis and trans olefinic, epoxide, and cyclopropane analogs related to 4-[N-(3-chlorophenyl)carbamoyloxy]-2-butynyltrimethylammonium chloride (McN-A-343)” (1976):
Activity calls are given as the source filed them. No cut-off for these calls is given here.

Tests used:
Felis catus [1] = assay: Induction of ganglion stimulating activity in cat assessed as increase in blood pressure at 1 to 300 ug/kg, iv by […]; format: functional
Oryctolagus cuniculus [2] = species: Oryctolagus cuniculus; assay: Agonist activity at muscarinic receptor in rabbit ileum assessed as […] relative to acetylcholine; format: tissue-based
Oryctolagus cuniculus [3] = species: Oryctolagus cuniculus; assay: Agonist activity at muscarinic receptor in rabbit ileum assessed as […]; format: tissue-based
Felis catus [4] = assay: Induction of ganglion stimulating activity in iv dosed cat assessed as slight increase in blood pressure administered at 300 ug/kg, iv by […]; format: functional, organism-based

Compound	Activity (Oryctolagus cuniculus [3])	Activity (Felis catus [1])	other results
C[N+](C)(C)C/C=C/COC(=O)Nc1ccc(Cl)cc1.[I-]			fold change (FC) (Felis catus [1]): 3; Activity (Oryctolagus cuniculus [2]): 1%
CN(C)C[C@@H]1C[C@@H]1CO (relative stereo)	inactive		
C[N+](C)(C)C[C@H]1O[C@@H]1COC(=O)Nc1ccc(Cl)cc1 (relative stereo)	inactive	Active	
C[N+](C)(C)C/C=C\COC(=O)Nc1ccc(Cl)cc1.[I-]	inactive		fold change (FC) (Felis catus [1]): 3; Activity (Felis catus [4]): Active
C[N+](C)(C)C[C@@H]1C[C@H]1COC(=O)Nc1ccc(Cl)cc1		inactive	
C[N+](C)(C)CC#CCOC(=O)Nc1cccc(Cl)c1		Active	
C[N+](C)(C)C[C@H]1C[C@H]1COC(=O)Nc1ccc(Cl)cc1 (relative stereo)		inactive	
C[N+](C)(C)C/C=C/COC(=O)Nc1cccc(Cl)c1			Activity (Felis catus [4]): Active
CN(C)C[C@H]1C[C@@H]1CO (relative stereo)	inactive		
C[N+](C)(C)CC#CCOC(=O)Nc1ccc(Cl)cc1		Active	
C[N+](C)(C)C[C@H]1O[C@H]1COC(=O)Nc1ccc(Cl)cc1 (relative stereo)	inactive	Active	
